Structures can show the parent of a compound that is named as a salt.
Legend:
[1] = test system: Aspergillus niger (16404); assay: Minimum Inhibitory Concentration (MIC) test, 96-well microtiter plate; format: cell-based; details: 48 hrs at 36° C., Sabouraud Dextrose Broth
Experimental: (§1) MICs for the organisms were determined using a standard 96-well microtiter plate assay in Tryptic Soy Broth (TSB) or Sabouraud Dextrose Broth (SDB). A stock solution (2500 ppm) of Octenidine distearate was prepared in methanol and stock solutions (2500 ppm) of Octenidine dihydrochloride and PHMB were prepared in absolute ethanol. […] Fungal inocula were grown up on Sabouraud Dextrose Agar plates (yeast) or Potato Dextrose Agar plates (mold) and mold spores and yeast cells were adjusted to approximately 100,000 per milliliter in Sabouraud Dextrose Broth (pH 5.6). Bacterial and fungal cultures were used to inoculate the serially diluted antimicrobials in the 96 well microplate and the plate was then incubated for 48 hrs at 36° C. The lowest concentration of test compound inhibiting growth at 48 hrs. (as determined by visual inspection) was recorded as the Minimum Inhibitory Concentration (MIC)

[2] = test system: Aureobasidium pullulans (9348); assay: as above; format: cell-based; details: 48 hrs at 36° C., Sabouraud Dextrose Broth
Experimental: as §1

[3] = test system: Bacillus subtilus (6633); assay: as above; format: cell-based; details: 48 hrs at 36° C., visual inspection
Experimental: as §1

[4] = test system: Candida albicans (10231); assay: as above; format: cell-based; details: 48 hrs at 36° C., Sabouraud Dextrose Broth
Experimental: as §1

[5] = test system: Enterobacter gergoviae (33028); assay: as above; format: cell-based; details: 48 hrs at 36° C., visual inspection
Experimental: as §1

[6] = test system: Enterococcus hirae (8043); assay: as above; format: cell-based; details: 48 hrs at 36° C., visual inspection
Experimental: as §1

[7] = test system: Escherichia coli (10536); assay: as above; format: cell-based; details: 48 hrs at 36° C., visual inspection
Experimental: as §1

[8] = test system: Gliocladium virens (9645); assay: as above; format: cell-based; details: 48 hrs at 36° C., Sabouraud Dextrose Broth
Experimental: as §1

[9] = test system: Klebsiella pneumoniae (4352); assay: as above; format: cell-based; details: 48 hrs at 36° C., visual inspection
Experimental: as §1

[10] = test system: LB penicillium sp.; assay: as above; format: cell-based; details: 48 hrs at 36° C., Sabouraud Dextrose Broth
Experimental: as §1

[11] = test system: Paecilomyces sp.; assay: as above; format: cell-based; details: 48 hrs at 36° C., Sabouraud Dextrose Broth
Experimental: as §1

[12] = test system: Penicillium pinophilium (11797); assay: as above; format: cell-based; details: 48 hrs at 36° C., Sabouraud Dextrose Broth
Experimental: as §1

[13] = test system: Pseudomonas aeruginosa (15442); assay: as above; format: cell-based; details: 48 hrs at 36° C., visual inspection
Experimental: as §1

[14] = test system: Pseudomonas aeruginosa (9027); assay: as above; format: cell-based; details: 48 hrs at 36° C., visual inspection
Experimental: as §1

[15] = test system: Staphylococcus aureus (6538); assay: as above; format: cell-based; details: 48 hrs at 36° C., visual inspection
Experimental: as §1

[16] = Foam height test; format: physicochemical; details: for foam height, 30 sec / foam height, 1 min / foam height, 2 min / foam height, Initial Reading: 0.5 grams in 49.5 ml DI water; for foam height, 30 sec / foam height, 1 min / foam height, 2 min: 100 ml graduated cylinder; for foam height, Initial Reading: read in 100 ml graduated cylinder with 1 ml line increments; for Type of Foam: 0.5 grams of active in 49.5 ml DI water, blended 1 minute
Experimental: The testing was performed on samples containing octenidine dihydrochloride, octenidine distearate, PHMB HCl and the chloride salts benzalkonium chloride, benzethonium chloride, and cetylpyridinium chloride.
A 250 ml beaker was filed with 49.5 ml of deionized (DI) water for each sample. Then, 0.5 grams of the active was added to the beaker. Each solution was blended with a Bamix® wand homogenizer/mixer for 1 minute. The solution was then poured into a 100 ml graduated cylinder with 1 ml line increments. The height of the foam was documented at an initial, 30 second, 1 minute, and 2 minute time point.

[17] = test system: EpiOcular™ Tissue Model (OCL-200); assay: MatTek EpiOcular MTT Viability Assay (ocular irritancy); format: cell-based, human
Experimental: The MatTek EpiOcular™ MTT Viability Assay (MatTek Corp.) was utilized to assess ocular irritancy and toxicology of octenidine distearate and octenidine dihydrochloride. The assay was performed using the MatTek EpiOcular™ Tissue Model (OCL-200) as well as the Methyl thiazole tetrazolium (MT) Kit (MT-100). The EpiOcular™ Tissue Model closely parallels human ocular tissue, thus providing a useful in vitro method to assess ocular irritancy and toxicology.
MTT Reduction: 704 μl of mineral oil were heated at 70° C. for 10 minutes.
0.3% Triton® X-100 (MatTek) (clear liquid) was used as a positive control. Tissue culture water (TCH20) (Sigma) (clear liquid) was used as a negative control. Mineral oil (Sigma) (clear liquid) was used as a vehicle control.
Before use, tissues were incubated (37° C.±1° C., 5%±1% CO2) with assay medium (MatTek) for a one-hour equilibration. Equilibration medium was replaced with fresh medium before dosing.
The test articles were diluted as described in the sample preparation above. 100 μl of the test article dilution were mixed with 1 ml of MTT solution (1 mg/ml MTT diluted in Dulbecco's Modified Eagle's Medium (DMEM). A negative control (100 μl of tissue culture water) and a vehicle control (100 μl of mineral oil) were tested concurrently. The solutions were incubated at room temperature in the dark for 60 minutes. After incubation, the solutions were visually inspected for purple coloration, which is a positive indication that the test article reduced MTT. Since tissue viability is based on MTT reduction, direct reduction by a test article can exaggerate viability, making a test article seem less irritating that it really is. […]
At the end of the selected exposure periods, each EpiOcular™ tissue was rinsed with phosphate buffered saline (PBS), soaked for 10 minutes in assay medial and transferred to a 24-well plate containing 300 μl of MTT solution (1 mg/ml MTT in DMEM). […] An aliquot of the extracted MTT formazan was measured at 540 nm using a plate reader (μQuant Plate Reader, Bio-Tek Instruments, Winooski, Vt.), subtracting the absorbance at a reference wavelength of 690 nm.
The mean absorbance value for each time point was calculated from the optical density (OD) of the duplicate samples and expressed as percent viability for each sample using the following formula: % viability=100×(OD sample/OD negative control or vehicle control) The ET50, the time at which the EpiOcular™ tissue viability was reduced 50% compared to control tissues, was then determined using a macro in Microsoft Excel 5.0, provided by MatTek, using the equation: V=a+b log t Where V=percent viability, t=time in hours, and a and b are constants that can be determined by using the viability data for two different exposure times of the text article to the tissue.

Compound: CCCCCCCCN=c1ccn(CCCCCCCCCCn2ccc(=NCCCCCCCC)cc2)cc1 [Octenidine HCl, Octenidine dihydrochloride]
- MIC [1]: 1.22 µg/mL
- MIC [2]: 0.61 µg/mL
- MIC [3]: 0.61 µg/mL
- MIC [4]: 0.31 µg/mL
- MIC ([5]; Pluralibacter gergoviae): 1.22 µg/mL
- MIC [6]: 0.61 µg/mL
- MIC [7]: 0.61 µg/mL
- MIC ([8]; Trichoderma virens): < 0.31 µg/mL
- MIC [9]: 0.61 µg/mL
- MIC [10]: 0.61 µg/mL
- MIC [11]: 78.1 µg/mL
- MIC [12]: < 0.31 µg/mL
- MIC [13]: 1.22 µg/mL
- MIC [14]: 1.22 µg/mL
- MIC [15]: 0.61 µg/mL
- foam height, 30 sec [16]: 80
- foam height, 1 min [16]: 78
- foam height, 2 min [16]: 70
- foam height, Initial Reading [16]: 86
- Type of Foam [16]: Slightly loose
- Irritancy Classification [17]: Severe

Compound: CCCCCCCCCCCCCCCCCC(=O)O.CCCCCCCCCCCCCCCCCC(=O)O.CCCCCCCCN=c1ccn(CCCCCCCCCCn2ccc(=NCCCCCCCC)cc2)cc1 [Octenidine distearate, octenidine distearate]
- Minimum Inhibitory Concentration (MIC) [1]: 9.77 ppm
- Minimum Inhibitory Concentration (MIC) [2]: 1.22 ppm
- Minimum Inhibitory Concentration (MIC) [3]: 1.22 ppm
- Minimum Inhibitory Concentration (MIC) [4]: 0.61 ppm
- Minimum Inhibitory Concentration (MIC) [5]: 4.88 ppm
- Minimum Inhibitory Concentration (MIC) [6]: 4.88 ppm
- Minimum Inhibitory Concentration (MIC) [7]: 2.44 ppm
- Minimum Inhibitory Concentration (MIC) [8]: 2.44 ppm
- Minimum Inhibitory Concentration (MIC) [9]: 2.44 ppm
- Minimum Inhibitory Concentration (MIC) [10]: 2.44 ppm
- Minimum Inhibitory Concentration (MIC) [11]: 156.25 ppm
- Minimum Inhibitory Concentration (MIC) [12]: 2.44 ppm
- Minimum Inhibitory Concentration (MIC) [13]: 19.53 ppm
- Minimum Inhibitory Concentration (MIC) [14]: 4.88 ppm
- Minimum Inhibitory Concentration (MIC) [15]: 2.44 ppm
- foam height, 30 sec [16]: 60
- foam height, 1 min [16]: 56
- foam height, 2 min [16]: 52
- foam height, Initial Reading [16]: 70
- Type of Foam [16]: Loose
- ET50 [17]: >256.0 min
- ET50 (min) [17]: greater than 256.0 min
- Irritancy Classification [17]: Non-Irritating, minimal

Reference: patent publication US9687432B2, “Antimicrobial bispyridine amine compositions and uses” (LONZA INC., priority 2012, dated 2017)
